Test results taken from ChEMBL document CHEMBL6120938, “Covalent small-molecule inhibitors of SARS-CoV-2 Mpro: Insights into their design, classification, biological activity, and binding interactions” (Eur J Med Chem, 2024).
Where a SMILES comes first, the peptide text is derived from it. The star is where a group is joined. Octanoyl = CCCCCCCC(=O)*; Boc = CC(C)(C)OC(=O)*

What follows are compounds tested on SARS-CoV-2 (assay: Antiviral activity against SARS-CoV-2 Wuhan 5-2N variant infected in African green monkey Vero E6 cells measured for 3 days by WST-8 assay). Conditions: Severe acute respiratory syndrome coronavirus 2, Wuhan 5-2N, Vero C1008, 72 h.
Format: functional, organism-based
Work on `CC(=O)NCC(=O)N[C@@H](Cc1ccccc1)C(=O)N[C@H](C=O)Cc1c[nH]cn1` (Ac-Gly-Phe-His-aldehyde) yielded an EC50 of 66.1 µM. For `CC(C)(C)OC(=O)NCC(=O)N[C@@H](Cc1ccccc1)C(=O)N[C@H](C=O)Cc1c[nH]cn1` (Boc-Gly-Phe-His-aldehyde), the EC50 was 5 µM. In the case of `CCCCCCCC(=O)NCC(=O)N[C@@H](Cc1ccccc1)C(=O)N[C@H](C=O)Cc1c[nH]cn1` (Octanoyl-Gly-Phe-His-aldehyde), the EC50 is reported as 5 µM.
